# Patent US8507533B2, “Glucagon receptor modulators” (Pfizer Inc., priority 2011, dated 2013)
# Target: human glucagon receptor (Homo sapiens (Human), UniProt P47871)
# Assay: Glucagon cAMP Assay (Cisbio cAMP detection)
# Format: cell-based
# Settings: CHOK1 cells stably transfected with the human glucagon receptor; block of glucagon induced cAMP production; Kb by modified Cheng-Prusoff equation
# Experimental: The Cisbio cAMP detection assay is used to determine the ability of punitive glucagon antagonist to block glucagon induced cAMP production. Potential glucagon antagonists are re-suspended and diluted in 100% DMSO. Prior to use in the Glucagon cAMP assay 100×DMSO compound stocks are diluted 20× with DMEM-F12 media (Invitrogen) containing either 0.1% or 4% BSA. […] 2 μls of 5% DMSO or known glucagon antagonist are added to each plate to define the assay window. CHOK1 cells stably transfected with the human glucagon receptor are removed from culture flasks with cell dissociation buffer. Cell pellets are re-suspended, at a concentration of 8.3e^5 cells/ml in DMEM-F12 with or without 4% BSA and 200 uM IBMX. 6 μls of cell suspensions are added to the assay plates. Plates are incubated for 20 min at room temperature prior to the addition of a 100 μM challenge dose of glucagon. On a separate plate glucagon dose response curves are run to determine the EC50 of glucagon. After a 30 min room temperature incubation the reaction is terminated by the addition of lysis buffer containing the cAMP detection reagents. Plates are incubated for an additional 60 min at room temperature prior to being read on the Perkin Elmer fluorescent plate reader. Raw is converted to nM of cAMP produced based on a cAMP standard curve. Converted data is then analyzed using the Pfizer data analysis program. IC50 values are determined from the generated sigmoidal dose response curves. Kb values are calculated using a modified Cheng-Prusoff equation. N is the number of times the compound was assayed.
# Chain of human glucagon receptor (P47871 26-477): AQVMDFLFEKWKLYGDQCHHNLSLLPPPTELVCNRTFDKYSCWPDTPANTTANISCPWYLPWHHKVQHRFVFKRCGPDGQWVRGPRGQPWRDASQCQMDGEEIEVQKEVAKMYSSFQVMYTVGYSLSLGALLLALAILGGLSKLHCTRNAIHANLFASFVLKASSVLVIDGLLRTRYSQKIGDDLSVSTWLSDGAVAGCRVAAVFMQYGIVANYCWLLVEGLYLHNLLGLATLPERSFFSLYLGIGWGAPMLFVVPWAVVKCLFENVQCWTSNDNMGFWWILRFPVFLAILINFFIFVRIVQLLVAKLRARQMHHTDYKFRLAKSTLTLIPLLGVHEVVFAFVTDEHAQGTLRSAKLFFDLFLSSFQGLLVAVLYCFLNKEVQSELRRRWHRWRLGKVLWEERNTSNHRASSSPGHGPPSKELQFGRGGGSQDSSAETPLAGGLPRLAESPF
row,SMILES,Kb [nM]
1,"CCCC(Oc1ccc(-c2cnn(C)c2)cc1)c1ccc(C(=O)NCCC(=O)O)cc1 (racemic) [Example 54, (+/−)-3-(4-(1-(4-(1-methyl-1H-pyrazol-4-yl)phenoxy)butyl)benzamido)propanoic acid]",3530
2,"CCCC(Oc1ccc(-c2cnn(C)c2C)cc1)c1ccc(C(=O)NCCC(=O)O)cc1 (racemic) [Example 55, (+/−)-3-(4-(1-(4-(1,5-dimethyl-1H-pyrazol-4-yl)phenoxy)butyl)benzamido)propanoic acid]",3720
3,"CCCC(Oc1ccc(-c2cn[nH]c2)cc1)c1ccc(C(=O)NCCC(=O)O)cc1 (racemic) [Example 56, (+/−)-3-(4-(1-(4-(1H-pyrazol-4-yl)phenoxy)butyl)benzamido)propanoic acid]",4370
4,"CCCC(Oc1ccc(-c2ccnn2C)cc1)c1ccc(C(=O)NCCC(=O)O)cc1 (racemic) [Example 57, (+/−)-3-(4-(1-(4-(1-methyl-1H-pyrazol-5-yl)phenoxy)butyl)benzamido)propanoic acid]",6100
5,"CCCC(Oc1ccc(-c2c(C)nn(C)c2C)cc1)c1ccc(C(=O)NCCC(=O)O)cc1 (racemic) [Example 58, (+/−)-3-(4-(1-(4-(1,3,5-trimethyl-1H-pyrazol-4-yl)phenoxy)butyl)benzamido)propanoic acid]",7300
6,"CCCC(Nc1ccc(-n2cc(-c3ccccc3)cn2)nc1)c1ccc(C(=O)NCCC(=O)O)cc1 (racemic) [Example 62, (+/−)-3-(4-(1-(6-(4-phenyl-1H-pyrazol-1-yl)pyridine-3-ylamino)butyl)benzamido)propanoic acid]",32.2
7,"CCCC(Nc1ccc(-n2cc(F)cn2)cc1)c1ccc(C(=O)NCCC(=O)O)cc1 (racemic) [Example 63, (+/−)-3-(4-(1-(4-(4-fluoro-1H-pyrazol-1-yl)phenylamino)butyl)benzamido)propanoic acid]",613
8,"CC(C)CC(Nc1ccc(C(=O)NCCC(=O)O)cn1)c1ccc(-n2cc(C(F)(F)F)cn2)cc1 (racemic) [Example 64, (+/−)-3-(6-(3-methyl-1-(4-(4-(trifluoromethyl)-1H-pyrazol-1-yl)phenyl)butylamino)nicotinamido)propanoic acid]",494
9,"O=C(O)CCNC(=O)c1ccc(C(CC2CC2)Oc2ccc(-n3cc(C(F)(F)F)cn3)cc2)cc1 (racemic) [Example 65, (+/−)-3-(4-(2-cyclopropyl-1-(4-(4-(trifluoromethyl)-1H-pyrazol-1-yl)phenoxy)ethyl)benzamido)propanoic acid]",2880
10,"CCCC(Oc1ccc(-n2ccc(C(F)(F)F)n2)cc1)c1ccc(C(=O)NCCC(=O)O)cc1 (racemic) [Example 70, (+/−)-3-(4-(1-(4-(3-(trifluoromethyl)-1H-pyrazol-1-yl)phenoxy)butyl)benzamido)propanoic acid]",1910
11,"CC(C)(C)CC(Oc1ccc(-n2cc(C(F)(F)F)cn2)cc1)c1ccc(C(=O)NCCC(=O)O)cc1 (racemic) [Example 71, (+/−)-3-(4-(3,3-dimethyl-1-(4-(4-(trifluoromethyl)-1H-pyrazol-1-yl)phenoxy)butyl)benzamido)propanoic acid]",2120
12,"CCCC(Oc1ccc(-n2cc(C)c(C(F)(F)F)n2)cc1)c1ccc(C(=O)NCCC(=O)O)cc1 (racemic) [Example 72, (+/−)-3-(4-(1-(4-(4-methyl-3-(trifluoromethyl)-1H-pyrazol-1-yl)phenoxy)butyl)benzamido)propanoic acid]",2300
13,"CCCC(Oc1ccc(-n2cnc(C(F)(F)F)n2)cc1)c1ccc(C(=O)NCCC(=O)O)cc1 (racemic) [Example 73, (+/−)-3-(4-(1-(4-(3-(trifluoromethyl)-1H-1,2,4-triazol-1-yl)phenoxy)butyl)benzamido)propanoic acid]",2640
14,"CCCC(Oc1ccc(-n2cc(C(F)(F)F)nc2C)cc1)c1ccc(C(=O)NCCC(=O)O)cc1 (racemic) [Example 75, (+/−)-3-(4-(1-(4-(2-methyl-4-(trifluoromethyl)-1H-imidazol-1-yl)phenoxy)butyl)benzamido)propanoic acid]",7710
15,"CCCC(Oc1ccc(-n2cc(C(F)(F)F)cn2)cn1)c1ccc(C(=O)NCCC(=O)O)cc1 (racemic) [Example 85, (+/−)-3-(4-(1-(5-(4-(trifluoromethyl)-1H-pyrazol-1-yl)pyridine-2-yloxy)butyl)benzamido)propanoic acid]",4140
16,"CCCC(Oc1ccc(-n2cnc(C(F)(F)F)c2)nc1)c1ccc(C(=O)NCCC(=O)O)cc1 (racemic) [Example 87, (+/−)-3-(4-(1-(6-(4-(trifluoromethyl)-1H-imidazol-1-yl)pyridine-3-yloxy)butyl)benzamido)propanoic acid]",9390
17,"CCCC(Oc1ccc(-n2cc3c(n2)CCC3)cc1)c1ccc(C(=O)NCCC(=O)O)cc1 (racemic) [Example 90, (+/−)-3-(4-(1-(4-(5,6-dihydrocyclopenta[c]pyrazol-2(4H)-yl)phenoxy)butyl)benzamido)propanoic acid]",> 2500
18,"CCCC(Nc1ccc(-n2cc(C)nn2)cc1)c1ccc(C(=O)NCCC(=O)O)cc1 (racemic) [Example 92, (+/−)-3-(4-(1-(4-(4-methyl-1H-1,2,3-triazol-1-yl)phenylamino)butyl)benzamido)propanoic acid]",5600
19,"CC(C)CC(Nc1ncc(C(=O)NCCC(=O)O)cn1)c1ccc(-n2cc(C(F)(F)F)cn2)cc1 (racemic) [Example 93, (+/−)-3-(2-(3-methyl-1-(4-(4-(trifluoromethyl)-1H-pyrazol-1-yl)phenyl)butylamino)pyrimidine-5-carboxamido)propanoic acid]",3840
20,"O=C(O)CCNC(=O)c1ccc(C(Nc2ccc(-n3cc(C(F)(F)F)cn3)nc2)C2CCCC2)cc1 (racemic) [Example 94, (+/−)-3-(4-(cyclopentyl(6-(4-(trifluoromethyl)-1H-pyrazol-1-yl)pyridine-3-ylamino)methyl)benzamido)propanoic acid]",57.5
21,O=C(O)CCNC(=O)c1ccc(NC(c2ccc(-n3cc(C(F)(F)F)cn3)cc2)C2CCCCC2)nc1 (racemic) [Example 99],376
22,"CC(C)(C)CC(Nc1ccc(-n2cnc(C(F)(F)F)c2)nc1)c1ccc(C(=O)NCCC(=O)O)cc1 (racemic) [Example 100, (+/−)-3-(4-(3,3-dimethyl-1-(6-(4-(trifluoromethyl)-1H-imidazol-1-yl)pyridine-3-ylamino)butyl)benzamido)propanoic acid]",226
23,"Cc1cc(NC(CC(C)C)c2ccc(C(=O)NCCC(=O)O)cn2)cnc1-n1cc(C(F)(F)F)cn1 (racemic) [Example 102, (+/−)-3-(6-(3-methyl-1-(5-methyl-6-(4-(trifluoromethyl)-1H-pyrazol-1-yl)pyridin-3-ylamino)butyl)nicotinamido)propanoic acid]",3540
24,"O=C(O)CCNC(=O)c1ccc(C(Nc2ccc(-n3cc(C(F)(F)F)cn3)nc2)C2CCCC2)cc1 (single isomer, unassigned) [Example 95, 3-(4-(cyclopentyl(6-(4-(trifluoromethyl)-1H-pyrazol-1-yl)pyridine-3-ylamino)methyl)benzamido)propanoic acid]",32.8
25,"O=C(O)CCNC(=O)c1ccc(C(Nc2ccc(-n3cc(C(F)(F)F)cn3)nc2)C2CCCC2)cc1 (single isomer, unassigned) [Example 96, 3-(4-(cyclopentyl(6-(4-(trifluoromethyl)-1H-pyrazol-1-yl)pyridine-3-ylamino)methyl)benzamido)propanoic acid]",871
26,"Cc1cc(-n2cc(C(F)(F)F)cn2)ccc1C(Nc1ccc(C(=O)NCCC(=O)O)cn1)C1CCCCC1 (single isomer, unassigned) [Example 117, 3-(6-(cyclohexyl(2-methyl-4-(4-(trifluoromethyl)-1H-pyrazol-1-yl)phenyl)methylamino)nicotinamido)propanoic acid]",227
27,"Cc1cc(-n2cc(C(F)(F)F)cn2)ccc1C(Nc1ccc(C(=O)NCCC(=O)O)cn1)C1CCCCC1 (single isomer, unassigned) [Example 118, 3-(6-(cyclohexyl(2-methyl-4-(4-(trifluoromethyl)-1H-pyrazol-1-yl)phenyl)methylamino)nicotinamido)propanoic acid]",1020
28,"CCCC(Nc1ccc(-n2cnc(C(F)(F)F)c2)nc1)c1ccc(C(=O)NCCC(=O)O)cc1 (single isomer, unassigned; isomer 1) [Example 10, 3-(4-(1-(6-(4-(trifluoromethyl)-1H-imidazol-1-yl)yridine-3-ylamino)butyl)benzamido)propanoic acid, Isomer 1]",15500
29,"CCCC(Nc1ccc(-n2cnc(C(F)(F)F)c2)nc1)c1ccc(C(=O)NCCC(=O)O)cc1 (single isomer, unassigned; isomer 2) [Example 11, 3-(4-(1-(6-(4-(trifluoromethyl)-1H-imidazol-1-yl)yridine-3-ylamino)butyl)benzamido)propanoic acid, Isomer 2]",612
30,CCCC(Oc1ccc(-n2cc(-c3ccccc3)cn2)nc1)c1ccc(C(=O)NCCC(=O)O)cc1 (stereo not drawn) [Example 133],75
